From ChEMBL document CHEMBL5550206, “Identification of 6-Fluorine-Substituted Coumarin Analogues as POLRMT Inhibitors with High Potency and Safety for Treatment of Pancreatic Cancer” (J Med Chem, 2024)
Activity calls are given as the source filed them. The calls are words filed in the database; no cut-off is given here.

Key:
[1] = Toxicity in BALB/c mouse xenografted with human MIA PaCa-2 cells assessed as pathological change in spleen at 25 to 100 mg/kg, iv once daily for 25 consecutive day after 2 weeks of cells injection by H and E staining based optical microscopic analysis; assay type: organism-based; details: in vivo, 336 h, dose 25-100 mg/kg
MIA PaCa-2 [2] = assay: Induction of cell arrest in human MIA PaCa-2 cells assessed as necrotic cells at 100 nM measured after 4 days by Annexin V-FITC and propidium iodide (PI) staining based assay (reference value: 0.82%); assay type: functional; details: time 4 day
MIA PaCa-2 [3] = assay: Inhibition of colony formation in human MIA PaCa-2 cells at 5 to 200 nM incubated for 14 days by crystal violet staining based assay; assay type: functional, cell-based; details: dose 5-200 nM, time 14.0 day
MIA PaCa-2 [4] = assay: Effect on SDHB protein complexes in human MIA PaCa-2 cells reduction in NDUFB8 protein level at 0.01 to 10 uM by Western blot analysis; assay type: functional, cell-based; details: dose 0.01-10 µM
MIA PaCa-2 [5] = assay: Induction of cell arrest in human MIA PaCa-2 cells assessed as accumulation of cells at S phase at 200 nM measured after 96 hrs by PI staining based flow cytometry (reference value: 16.8%); assay type: functional
MIA PaCa-2 [6] = assay: Inhibition of RNA pol I in human MIA PaCa-2 cells assessed as effect on 18S RNA level at 0.1 to 1 uM measured after 12 hrs by RT-qPCR analysis; assay type: cell-based; details: dose 0.1-1 µM
MIA PaCa-2 [7] = assay: Induction of cell arrest in human MIA PaCa-2 cells assessed as accumulation of cells at G1 phase at 100 nM measured after 96 hrs by PI staining based flow cytometry (reference value: 64%); assay type: functional
MIA PaCa-2 [8] = assay: Induction of apoptosis in human MIA PaCa-2 cells xenografted in BALB/c mouse at 25 to 100 mg/kg, iv once daily for 25 consecutive day after 2 weeks of cells injection by TUNEL staining based analysis; assay type: functional, organism-based; details: dose 25-100 mg/kg
MIA PaCa-2 [9] = assay: Reduction of protein complexes of mitochondrial electron transport chain in human MIA PaCa-2 cells reduction in UQCRC2 protein level by Western blot analysis; assay type: functional, cell-based; details: dose 0.001-5 µM
MIA PaCa-2 [10] = assay: Induction of cell arrest in human MIA PaCa-2 cells assessed as late apoptotic cells at 25 nM measured after 4 days by Annexin V-FITC and propidium iodide (PI) staining based assay (reference value: 3.23%); assay type: functional; details: time 4 day
MIA PaCa-2 [11] = assay: In vivo antitumor activity against human MIA PaCa-2 cells xenografted in BALB/c mouse assessed as reduction in tumor weight at 25 mg/kg, iv once daily for 25 consecutive day after 2 weeks of cells injection relative to control; assay type: functional; details: MIA PaCa-2, 600 h, time 25 day
MIA PaCa-2 [12] = assay: Induction of cell arrest in human MIA PaCa-2 cells assessed as necrotic cells at 500 nM measured after 4 days by Annexin V-FITC and propidium iodide (PI) staining based assay (reference value: 0.82%); assay type: functional; details: time 4 day
MIA PaCa-2 [13] = assay: Antitumor activity against human MIA PaCa-2 cells xenografted in BALB/c nude mouse assessed as reduction in Ki67 protein expression at 25 to 100 mg/kg, iv once daily for 25 consecutive day after 2 weeks of cells injection by immunohistochemical analysis; assay type: functional, organism-based; details: dose 25-100 mg/kg
MIA PaCa-2 [14] = assay: Induction of cell arrest in human MIA PaCa-2 cells assessed as early apoptotic cells at 50 nM measured after 4 days by Annexin V-FITC and propidium iodide (PI) staining based assay (reference value: 1.07%); assay type: functional; details: time 4 day
[15] = Toxicity in BALB/c mouse xenografted with human MIA PaCa-2 cells assessed as change in body weight at 25 to 100 mg/kg, iv once daily for 25 consecutive day after 2 weeks of cells injection; assay type: organism-based; details: in vivo, 600 h, dose 25-100 mg/kg, time 25 day
MIA PaCa-2 [16] = assay: Induction of cell arrest in human MIA PaCa-2 cells assessed as viable cells at 500 nM measured after 4 days by Annexin V-FITC and propidium iodide (PI) staining based assay (reference value: 94.9%); assay type: functional; details: MIA PaCa-2, 96 h, time 4 day, read-out: Activity
MIA PaCa-2 [17] = assay: Induction of senescence in human MIA PaCa-2 cells at 50 to 1000 nM measured after 96 hrs by beta-galactosidase staining based assay; assay type: functional, cell-based; details: dose 50-1000 nM
MIA PaCa-2 [18] = assay: Induction of cell arrest in human MIA PaCa-2 cells assessed as accumulation of cells at G2 phase at 100 nM measured after 96 hrs by PI staining based flow cytometry (reference value: 11.2%); assay type: functional
MIA PaCa-2 [19] = assay: Induction of cell arrest in human MIA PaCa-2 cells assessed as viable cells at 25 nM measured after 4 days by Annexin V-FITC and propidium iodide (PI) staining based assay (reference value: 94.9%); assay type: functional; details: MIA PaCa-2, 96 h, time 4 day, read-out: Activity
MIA PaCa-2 [20] = assay: Induction of cell arrest in human MIA PaCa-2 cells assessed as accumulation of cells at S phase at 100 nM measured after 96 hrs by PI staining based flow cytometry (reference value: 16.8%); assay type: functional
MIA PaCa-2 [21] = assay: Induction of cell arrest in human MIA PaCa-2 cells assessed as accumulation of cells at G1 phase at 200 nM measured after 96 hrs by PI staining based flow cytometry (reference value: 64%); assay type: functional
MIA PaCa-2 [22] = assay: Induction of cell arrest in human MIA PaCa-2 cells assessed as accumulation of cells at G2 phase at 200 nM measured after 96 hrs by PI staining based flow cytometry (reference value: 11.2%); assay type: functional
MIA PaCa-2 [23] = assay: Down-regulation of COX1 gene expression in human MIA PaCa-2 cells at 0.1 to 1 uM measured after 12 hrs by RT-qPCR analysis; assay type: functional, cell-based; details: dose 0.1-1 µM
MIA PaCa-2 [24] = assay: Antiproliferative activity against human MIA PaCa-2 cells assessed as cell viability measured after 168 hrs incubation by SRB assay; assay type: functional, cell-based; details: MIA PaCa-2, 168 h
MIA PaCa-2 [25] = assay: Induction of cell arrest in human MIA PaCa-2 cells assessed as viable cells at 50 nM measured after 4 days by Annexin V-FITC and propidium iodide (PI) staining based assay (reference value: 94.9%); assay type: functional; details: MIA PaCa-2, 96 h, time 4 day, read-out: Activity
MIA PaCa-2 [26] = assay: In vivo antitumor activity against human MIA PaCa-2 cells xenografted in BALB/c mouse assessed as reduction in tumor weight at 100 mg/kg, iv once daily for 25 consecutive day after 2 weeks of cells injection relative to control; assay type: functional; details: MIA PaCa-2, 600 h, time 25 day
MIA PaCa-2 [27] = assay: Inhibition of colony formation in human MIA PaCa-2 cells assessed as decrease in size of colony at 5 nM incubated for 14 days by crystal violet staining based assay; assay type: functional, cell-based; details: time 14.0 day
MIA PaCa-2 [28] = assay: Induction of cell arrest in human MIA PaCa-2 cells assessed as accumulation of cells at S phase at 50 nM measured after 96 hrs by PI staining based flow cytometry (reference value: 16.8%); assay type: functional
[29] = target: DNA-directed RNA polymerase, mitochondrial (Homo sapiens) (UniProt O00411); assay: Inhibition of human POLRMT in human MIA PaCa-2 cells assessed as inhibition of mitochondria coded ubiquinone oxidoreductase core subunit 1 (ND I) transcript level measured after 12 hrs by RT-qPCR analysis; details: dose 0.001-5 µM
DNA-directed RNA polymerase, mitochondrial (Homo sapiens), sequence (O00411 whole entry): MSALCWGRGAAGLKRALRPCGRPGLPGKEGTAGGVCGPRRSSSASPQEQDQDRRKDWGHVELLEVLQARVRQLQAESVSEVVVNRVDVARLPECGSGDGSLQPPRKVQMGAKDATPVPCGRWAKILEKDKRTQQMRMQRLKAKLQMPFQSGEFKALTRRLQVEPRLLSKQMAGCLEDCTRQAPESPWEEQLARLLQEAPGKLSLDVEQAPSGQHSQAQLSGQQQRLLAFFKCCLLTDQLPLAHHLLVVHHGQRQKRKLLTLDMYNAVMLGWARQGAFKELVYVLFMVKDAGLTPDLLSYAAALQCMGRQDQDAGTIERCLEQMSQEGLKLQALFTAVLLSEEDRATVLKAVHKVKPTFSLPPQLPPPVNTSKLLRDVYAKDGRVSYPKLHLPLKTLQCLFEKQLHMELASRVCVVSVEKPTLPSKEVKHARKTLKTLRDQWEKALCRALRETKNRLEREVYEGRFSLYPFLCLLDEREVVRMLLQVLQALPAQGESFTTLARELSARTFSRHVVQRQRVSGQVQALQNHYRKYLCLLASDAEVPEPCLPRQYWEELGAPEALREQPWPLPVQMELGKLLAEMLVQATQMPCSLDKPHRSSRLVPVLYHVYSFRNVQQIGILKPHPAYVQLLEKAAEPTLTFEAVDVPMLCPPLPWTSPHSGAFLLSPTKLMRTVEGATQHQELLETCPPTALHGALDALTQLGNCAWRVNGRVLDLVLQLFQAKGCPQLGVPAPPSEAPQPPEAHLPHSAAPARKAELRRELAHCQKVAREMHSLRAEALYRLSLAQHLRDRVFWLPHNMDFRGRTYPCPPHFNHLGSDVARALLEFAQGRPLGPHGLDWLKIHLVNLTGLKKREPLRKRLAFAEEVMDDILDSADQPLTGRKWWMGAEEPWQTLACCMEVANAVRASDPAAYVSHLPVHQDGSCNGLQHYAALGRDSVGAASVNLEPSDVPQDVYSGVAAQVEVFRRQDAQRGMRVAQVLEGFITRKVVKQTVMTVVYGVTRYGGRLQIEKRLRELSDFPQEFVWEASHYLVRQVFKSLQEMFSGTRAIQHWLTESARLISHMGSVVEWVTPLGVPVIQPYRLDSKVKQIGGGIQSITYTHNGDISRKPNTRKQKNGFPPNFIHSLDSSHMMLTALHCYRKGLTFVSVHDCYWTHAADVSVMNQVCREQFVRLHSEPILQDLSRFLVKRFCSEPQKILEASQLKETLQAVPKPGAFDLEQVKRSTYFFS

MIA PaCa-2 [30] = assay: Inhibition of mitochondria coded ubiquinone oxidoreductase core subunit 1 (ND I) transcript level in human MIA PaCa-2 cells measured after 12 to 36 hrs of compound removal by RT-qPCR analysis; assay type: functional; details: time 12-36 hrs

What does the source list for `CCN(CC)C(=O)[C@@H](C)Oc1cc2oc(=O)cc(-c3ccccc3C)c2cc1F`?
Activity [1]: Non-Toxic; Activity (MIA PaCa-2 [2]): 0.94%; inhibition (MIA PaCa-2 [3]): Active; Activity (MIA PaCa-2 [4]): inactive; Activity (MIA PaCa-2 [5]): 17%; inhibition (MIA PaCa-2 [6]): inactive; Activity (MIA PaCa-2 [7]): 63.6%; Activity (MIA PaCa-2 [8]): inactive; Activity (MIA PaCa-2 [9]): Dose-Dependent Effect; Activity (MIA PaCa-2 [10]): 3.32%; inhibition in vivo at 25 mg/kg (MIA PaCa-2 [11]): 45.2%; Activity (MIA PaCa-2 [12]): 1.28%; Activity (MIA PaCa-2 [13]): Active; Activity (MIA PaCa-2 [14]): 1.08%; Activity [15]: Non-Toxic; viability at 0.5 µM (MIA PaCa-2 [16]): 94.3%; Activity (MIA PaCa-2 [17]): inactive; Activity (MIA PaCa-2 [18]): 11.3%; viability at 0.025 µM (MIA PaCa-2 [19]): 94.5%; Activity (MIA PaCa-2 [20]): 16.7%; Activity (MIA PaCa-2 [21]): 62.4%; Activity (MIA PaCa-2 [22]): 13%; Activity (MIA PaCa-2 [23]): Active; IC50 (MIA PaCa-2 [24]): 5 nM; viability at 0.05 µM (MIA PaCa-2 [25]): 94.1%; inhibition in vivo at 100 mg/kg (MIA PaCa-2 [26]): 64.5%; inhibition (MIA PaCa-2 [27]): Active; Activity (MIA PaCa-2 [28]): 15.4%; inhibition [29]: Dose-Dependent Effect; inhibition (MIA PaCa-2 [30]): Active
